From US20240409585A1, “MACROCYCLIC IMMUNOMODULATORS” (priority 2021, published 2024)
Bridge positions count the residues as written; N and C are the ends. Square brackets hold non-standard residues; d marks the D form. Peptide text beside a SMILES is read from it. * marks the point of attachment. ξ: configuration not given here. Phe(4-CONH2) = NC(=O)c1ccc(C[C@H](N)C(=O)O)cc1; Phe(4-COOH) = N[C@@H](Cc1ccc(C(=O)O)cc1)C(=O)O; Bip = N[C@@H](Cc1ccc(-c2ccccc2)cc1)C(=O)O; Phe(3-Cl) = N[C@@H](Cc1cccc(Cl)c1)C(=O)O; Phe(4-CN) = N#Cc1ccc(C[C@H](N)C(=O)O)cc1; Phe(3-Me) = Cc1cccc(C[C@H](N)C(=O)O)c1; Bta = N[C@@H](Cc1csc2ccccc12)C(=O)O; dBta = N[C@H](Cc1csc2ccccc12)C(=O)O; Nva(4-oxo) = CC(=O)C[C@H](N)C(=O)O; Val(3-OH) = CC(C)(O)[C@H](N)C(=O)O; mTyr = N[C@@H](Cc1cccc(O)c1)C(=O)O; aIle = CC[C@@H](C)[C@H](N)C(=O)O; 3Pal = N[C@@H](Cc1cccnc1)C(=O)O; 3Thi = N[C@@H](Cc1ccsc1)C(=O)O; Cha = N[C@@H](CC1CCCCC1)C(=O)O; Cit = NC(=O)NCCC[C@H](N)C(=O)O; Thr(3ξ) = CC(O)[C@H](N)C(=O)O; Ahp(2) = CCCCC[C@H](N)C(=O)O; Ala(CN) = N#CC[C@H](N)C(=O)O; Carboxymethyl = O=C(O)C*; NMeA = CN[C@@H](C)C(=O)O; Orn = NCCC[C@H](N)C(=O)O; Dab = NCC[C@H](N)C(=O)O; ξV = CC(C)C(N)C(=O)O

Biological target: T1, PE-labeled human PD-L1-Ig binding to Jurkat cell line over-expressing human PD-1 (Jurkat-PD-1) (Homo sapiens, UniProt Q15116)
T1 construct: expressed in transfected cells; host or cells: Jurkat
T1 sequence (Q15116 25-288): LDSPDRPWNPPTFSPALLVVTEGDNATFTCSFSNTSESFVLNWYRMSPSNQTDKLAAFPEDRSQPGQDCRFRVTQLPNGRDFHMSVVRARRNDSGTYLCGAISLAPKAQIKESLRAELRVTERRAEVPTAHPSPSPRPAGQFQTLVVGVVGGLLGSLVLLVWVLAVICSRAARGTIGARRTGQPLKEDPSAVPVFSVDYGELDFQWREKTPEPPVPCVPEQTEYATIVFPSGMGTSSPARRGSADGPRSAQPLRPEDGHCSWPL
Experiment: Jurkat-PD-1 Cell Binding High-Content Screening Assay (CBA): Method 1
Details: Jurkat-hPD-1 cells, PE-labeled PD-L1-Ig 20 nM final; read-out: Jurkat HPDL1 PD1 IC50 (uM) (Method 1)

| IC50 [µM] | SMILES |
| --- | --- |
| 0.11 | CC(C)C[C@@H]1NC(=O)[C@H](CCN)NC(=O)[C@@H](CC(C)C)NC(=O)[C@H](C)N(C)C(=O)[C@H](CC(N)=O)NC(=O)[C@H](Cc2ccc(-c3ccccc3)cc2)NC(=O)[C@H](C(C)C)NC(=O)[C@H](Cc2c[nH]c3ccccc23)NC(=O)[C@H](CC(=O)O)NC(=O)[C@H](Cc2ccc(O)cc2)NC(=O)[C@H](CC(N)=O)NC(=O)CSC[C@@H](C(=O)N[C@@H](C)C(N)=O)NC(=O)[C@H]([C@@H](C)O)NC(=O)[C@H](C(C)C)NC1=O [Compound 1259] ({CH2CO}-NYDWV[Bip]N[NMeA][dL][Dab]LVTCA-NH2; thioether N-14) |
| 0.05 | CC(C)C[C@@H]1NC(=O)[C@H](CCCNC(=N)N)NC(=O)[C@@H](CC(C)C)NC(=O)[C@H](C)N(C)C(=O)[C@H](CCCNC(=N)N)NC(=O)[C@H](Cc2ccc(-c3ccccc3)cc2)NC(=O)[C@H](C(C)C)NC(=O)[C@H](Cc2c[nH]c3ccccc23)NC(=O)[C@H](CC(=O)O)NC(=O)[C@H](Cc2ccc(O)cc2)NC(=O)[C@H](Cc2cccnc2)NC(=O)CSC[C@@H](C(=O)N[C@@H](C)C(N)=O)NC(=O)[C@H](CO)NC(=O)[C@H](C(C)C)NC1=O [Compound 1036] ({CH2CO}-[3Pal]YDWV[Bip]R[NMeA][dL]RLVSCA-NH2; thioether N-14) |
| 0.02 | CC(C)C[C@@H]1NC(=O)[C@H](CCN)NC(=O)[C@@H](CC(C)C)NC(=O)[C@H](C)N(C)C(=O)[C@H](CCCNC(N)=O)NC(=O)[C@H](Cc2ccc(-c3ccccc3)cc2)NC(=O)[C@H](C(C)C)NC(=O)[C@H](Cc2cccc(Cl)c2)NC(=O)[C@H](CC(=O)O)NC(=O)[C@H](Cc2ccc(O)cc2)NC(=O)[C@H](CC(N)=O)NC(=O)CSC[C@@H](C(=O)N[C@@H](C)C(N)=O)NC(=O)[C@H]([C@@H](C)O)NC(=O)[C@H](C(C)C)NC1=O [Compound 1190] ({CH2CO}-NYD[Phe(3-Cl)]V[Bip][Cit][NMeA][dL][Dab]LVTCA-NH2; thioether N-14) |
| 0.01 | CC[C@H](C)[C@@H]1NC(=O)[C@H](Cc2ccc(-c3ccccc3)cc2)NC(=O)[C@H](C(C)C)NC(=O)[C@H](Cc2cccc(C)c2)NC(=O)[C@H](CC(=O)O)NC(=O)[C@H](Cc2ccc(O)cc2)NC(=O)[C@H](CC(N)=O)NC(=O)CSC[C@@H](C(=O)N[C@H](C)C(N)=O)NC(=O)[C@H](CCC(=O)O)NC(=O)[C@H](C(C)(C)O)NC(=O)[C@H](CC2CCCCC2)NC(=O)[C@H](CCN)NC(=O)[C@@H](CC(C)C)NC(=O)[C@H](C)N(C)C1=O [Compound 1696] ({CH2CO}-NYD[Phe(3-Me)]V[Bip]I[NMeA][dL][Dab][Cha][Val(3-OH)]EC[dA]-NH2; thioether N-14) |
| 0.08 | CC(C)C[C@@H]1NC(=O)[C@H](CCN)NC(=O)[C@@H](CC(C)C)NC(=O)[C@H](C)N(C)C(=O)[C@H](CO)NC(=O)[C@H](Cc2ccc(-c3ccccc3)cc2)NC(=O)[C@H](C(C)C)NC(=O)[C@H](Cc2c[nH]c3ccccc23)NC(=O)[C@H](CC(=O)O)NC(=O)[C@H](Cc2ccc(O)cc2)NC(=O)[C@H](CC(N)=O)NC(=O)CSC[C@@H](C(=O)N[C@@H](C)C(N)=O)NC(=O)[C@H]([C@@H](C)O)NC(=O)[C@H](C(C)C)NC1=O [Compound 1261] ({CH2CO}-NYDWV[Bip]S[NMeA][dL][Dab]LVTCA-NH2; thioether N-14) |
| 0.13 | CC(C)C[C@@H]1NC(=O)[C@H](CCN)NC(=O)[C@@H](CC(C)C)NC(=O)[C@H](C)N(C)C(=O)[C@H](CCCNC(=N)N)NC(=O)[C@H](Cc2ccc(-c3ccccc3)cc2)NC(=O)[C@H](C(C)C)NC(=O)[C@H](Cc2c[nH]c3ccccc23)NC(=O)[C@H](CC(=O)O)NC(=O)[C@H](Cc2cccc(O)c2)NC(=O)[C@H](CC(N)=O)NC(=O)CSC[C@@H](C(=O)N[C@@H](C)C(N)=O)NC(=O)[C@H]([C@@H](C)O)NC(=O)[C@H](C(C)C)NC1=O [Compound 1355] ({CH2CO}-N[mTyr]DWV[Bip]R[NMeA][dL][Dab]LVTCA-NH2; thioether N-14) |
| 0.06 | CCCCC[C@@H]1NC(=O)[C@H](Cc2ccc(-c3ccccc3)cc2)NC(=O)[C@H](C(C)C)NC(=O)[C@H](Cc2c[nH]c3ccccc23)NC(=O)[C@H](CC(=O)O)NC(=O)[C@H](Cc2ccc(O)cc2)NC(=O)[C@H](CC(N)=O)NC(=O)CSC[C@@H](C(=O)N[C@@H](C)C(N)=O)NC(=O)[C@H](C(C)O)NC(=O)[C@H](C(C)C)NC(=O)[C@H](CC(C)C)NC(=O)[C@H](CCN)NC(=O)[C@@H](CC(C)C)NC(=O)[C@H](C)N(C)C1=O (stereo partly drawn) [Compound 2083] ({CH2CO}-NYDWV[Bip][Ahp(2)][NMeA][dL][Dab]LV[Thr(3ξ)]CA-NH2; thioether N-14) |
| 0.19 | CC[C@@H](C)[C@@H]1NC(=O)[C@H](Cc2ccc(-c3ccccc3)cc2)NC(=O)[C@H](CC#N)NC(=O)[C@H](Cc2c[nH]c3ccccc23)NC(=O)[C@H](CC(=O)O)NC(=O)[C@H](Cc2ccc(C(=O)O)cc2)NC(=O)[C@H](Cc2ccc(OCC(=O)O)cc2)NC(=O)CSC[C@@H](C(=O)N[C@@H](CCCCN)C(N)=O)NC(=O)[C@H](CO)NC(=O)C(C(C)C)NC(=O)[C@H](CC(C)C)NC(=O)[C@H](CC(N)=O)NC(=O)[C@@H](CC(C)C)NC(=O)[C@H](C)N(C)C1=O (stereo partly drawn) [Compound 2102] ({CH2CO}-Y(Carboxymethyl)[Phe(4-COOH)]DW[Ala(CN)][Bip][aIle][NMeA][dL]NL[ξV]SCK-NH2; thioether N-14) |
| 0.21 | CC(=O)C[C@@H]1NC(=O)CSC[C@@H](C(=O)NCC(N)=O)NC(=O)[C@H](CO)NC(=O)[C@H](C(C)C)NC(=O)[C@H](CC(C)C)NC(=O)[C@H](CCCNC(=N)N)NC(=O)[C@H](Cc2csc3ccccc23)NC(=O)[C@H](C)N(C)C(=O)[C@H](CCCNC(=N)N)NC(=O)[C@H](Cc2ccc(-c3ccccc3)cc2)NC(=O)[C@H](C(C)C)NC(=O)[C@H](Cc2c[nH]c3ccccc23)NC(=O)[C@H](CC(=O)O)NC(=O)[C@H](Cc2ccc(O)cc2)NC1=O [Compound 1027] ({CH2CO}-[Nva(4-oxo)]YDWV[Bip]R[NMeA][Bta]RLVSCG-NH2; thioether N-14) |
| 0.07 | CC(C)C[C@H]1NC(=O)[C@H](C)N(C)C(=O)[C@H](Cc2ccc(OCC(=O)O)cc2)NC(=O)[C@H](Cc2ccc(-c3ccccc3)cc2)NC(=O)[C@H](Cc2ccc(C(=O)O)cc2)NC(=O)[C@H](Cc2c[nH]c3ccccc23)NC(=O)[C@H](CC(=O)O)NC(=O)[C@H](Cc2ccc(OCC(=O)O)cc2)NC(=O)[C@H](Cc2ccsc2)NC(=O)CSC[C@@H](C(=O)N[C@@H](CCN)C(N)=O)NC(=O)[C@H](CO)NC(=O)[C@H](C(C)(C)O)NC(=O)[C@H](CC2CCCCC2)NC(=O)[C@H](CC(N)=O)NC1=O [Compound 2131] ({CH2CO}-[3Thi]Y(Carboxymethyl)DW[Phe(4-COOH)][Bip]Y(Carboxymethyl)[NMeA][dL]N[Cha][Val(3-OH)]SC[Dab]-NH2; thioether N-14) |
| 0.06 | Cc1cccc(C[C@@H]2NC(=O)[C@H](CC(=O)O)NC(=O)[C@H](Cc3ccc(OCC(=O)O)cc3)NC(=O)[C@H](CCN)NC(=O)CSC[C@@H](C(=O)N[C@@H](CO)C(N)=O)NC(=O)[C@H](CO)NC(=O)[C@H](C(C)(C)O)NC(=O)[C@H](CC3CCCCC3)NC(=O)[C@H](CCN)NC(=O)[C@@H](CC(C)C)NC(=O)[C@H](C)N(C)C(=O)[C@H](Cc3ccc(C(=O)O)cc3)NC(=O)[C@H](Cc3ccc(-c4ccccc4)cc3)NC(=O)[C@H](Cc3ccc(C(N)=O)cc3)NC2=O)c1 [Compound 2179] ({CH2CO}-[Dab]Y(Carboxymethyl)D[Phe(3-Me)][Phe(4-CONH2)][Bip][Phe(4-COOH)][NMeA][dL][Dab][Cha][Val(3-OH)]SCS-NH2; thioether N-14) |
| 0.03 | CC(C)C[C@@H]1NC(=O)[C@H](Cc2c[nH]c3ccccc23)NC(=O)[C@H](CC(=O)O)NC(=O)[C@H](Cc2ccc(C#N)cc2)NC(=O)[C@H](Cc2ccccc2)NC(=O)CSC[C@@H](C(=O)NCC(N)=O)NC(=O)[C@H](CO)NC(=O)[C@H](C(C)C)NC(=O)[C@H](CC(C)C)NC(=O)[C@H](CC(N)=O)NC(=O)[C@@H](CC(C)C)NC(=O)[C@H](C)N(C)C(=O)[C@H](C(C)C)NC(=O)[C@H](Cc2ccc(-c3ccccc3)cc2)NC1=O [Compound 1525] ({CH2CO}-F[Phe(4-CN)]DWL[Bip]V[NMeA][dL]NLVSCG-NH2; thioether N-14) |
| 0.02 | CC(C)C[C@@H]1NC(=O)[C@H](Cc2c[nH]c3ccccc23)NC(=O)[C@H](CC(=O)O)NC(=O)[C@H](Cc2ccc(O)cc2)NC(=O)[C@H](Cc2cnc[nH]2)NC(=O)CSC[C@@H](C(=O)N[C@@H](C)C(N)=O)NC(=O)[C@H](CO)NC(=O)[C@H](C(C)C)NC(=O)[C@H](CC(C)C)NC(=O)[C@H](CC(N)=O)NC(=O)[C@@H](C)NC(=O)[C@H](C)N(C)C(=O)[C@H](C(C)C)NC(=O)[C@H](Cc2ccc(-c3ccccc3)cc2)NC1=O [Compound 1736] ({CH2CO}-HYDWL[Bip]V[NMeA][dA]NLVSCA-NH2; thioether N-14) |
| 0.15 | CC(C)C[C@@H]1NC(=O)[C@H](CCCN)NC(=O)[C@@H](Cc2csc3ccccc23)NC(=O)[C@H](C)N(C)C(=O)[C@H](CCCNC(=N)N)NC(=O)[C@H](Cc2ccc(-c3ccccc3)cc2)NC(=O)[C@H](C(C)C)NC(=O)[C@H](Cc2c[nH]c3ccccc23)NC(=O)[C@H](CC(=O)O)NC(=O)[C@H](Cc2ccc(O)cc2)NC(=O)[C@H](Cc2ccccc2)NC(=O)CSC[C@@H](C(=O)N[C@@H](C)C(N)=O)NC(=O)[C@H]([C@@H](C)O)NC(=O)[C@H](C(C)C)NC1=O [Compound 1171] ({CH2CO}-FYDWV[Bip]R[NMeA][dBta][Orn]LVTCA-NH2; thioether N-14) |
| 0.85 | CC(C)C[C@@H]1NC(=O)[C@H](Cc2c[nH]c3ccccc23)NC(=O)[C@H](CC(=O)O)NC(=O)[C@H](Cc2ccc(O)cc2)NC(=O)[C@H](Cc2ccccc2)NC(=O)CSC[C@@H](C(=O)NCC(N)=O)NC(=O)[C@H](CO)NC(=O)[C@H](C(C)C)NC(=O)[C@H](CC(C)C)NC(=O)[C@H](CC(=O)O)NC(=O)[C@@H](CC(=O)O)NC(=O)[C@H](C)N(C)C(=O)[C@H](C(C)C)NC(=O)[C@H](Cc2ccc(-c3ccccc3)cc2)NC1=O [Compound 1829] ({CH2CO}-FYDWL[Bip]V[NMeA][dD]DLVSCG-NH2; thioether N-14) |
